Experimental data published in patent publication US20250025454A1 (priority 2021, published 2025).
Where two headings read alike, the source gives them in different places.

Legend:
[1] = Pharmacokinetics (plasma, lung at 24 h) after single oral dosing in male Sprague-Dawley rats; conditions: male, Sprague-Dawley, rat, po; for Cmax / Tmax / AUC(0-t) / AUC(0-inf): male SD rat plasma; for AUC(0-t): AUClast
[2] = female, 129/S, mouse, in vivo
[3] = female, 129S1, mouse, in vivo, po
in vivo [4] = conditions: male, Sprague-Dawley, rat, po; for AUC(0-t): AUClast
in vivo [5] = conditions: female, 129S1, mouse; for Tmax: range
[6] = in vivo, 250 mg/kg, single oral 250 mg/kg (Group 1), mean
[7] = in vivo, 500 mg/kg, single oral 500 mg/kg (Group 2), individual rats 453, 454, 455
[8] = in vivo, 500 mg/kg, single oral 500 mg/kg (Group 2), mean
[9] = in vivo, 750 mg/kg, single oral 750 mg/kg (Group 3), individual rats 456, 457, 458
[10] = in vivo, 750 mg/kg, single oral 750 mg/kg (Group 3), mean
[11] = in vivo, 1000 mg/kg, single oral 1000 mg/kg (Group 4), one outlier excluded, mean
[12] = plasma, 1000 mg/kg, single oral 1000 mg/kg (Group 4), one outlier excluded, individual rats 459, 460, 461
[13] = 1000 mg/kg, Plasma concentration

With Cc1c(-c2ccc(O)cc2)n(Cc2ccc(OCCN3CCCCC3)cc2)c2ccc(O)cc12 [Pipendoxifene, 2-(4-hydroxyphenyl)-3-methyl-1-[[4-(2-piperidin-1-ylethoxy)phenyl]methyl]indol-5-ol] the Cmax [1, 6] was 311 ± 42 ng/mL, the half-life ([1]; in vivo, 250 mg/kg, t1/2, male SD rat plasma, single oral 250 mg/kg (Group 1), mean) was 6.06 ± 2.62 h and the Tmax [1, 6] was 5.33 ± 1.15 h. For the same compound, the AUC(0-t) [1, 7] was 5730 ng·h/mL, the AUC(0-inf) [1, 7] was 6410 ng·h/mL and the AUC(0-inf) [1, 8] was 5850 ng·h/mL. The half-life ([1]; in vivo, 500 mg/kg, t1/2, male SD rat plasma, single oral 500 mg/kg (Group 2), individual rats 453, 454, 455) was 6.08 h, the half-life ([1]; in vivo, 500 mg/kg, t1/2, male SD rat plasma, single oral 500 mg/kg (Group 2), mean) was 5.2 ± 1.34 h and the Tmax [1, 7] was 8 h. It also gave a Tmax [1, 8] of 6.67 ± 1.15 h, an AUC(0-t) [1, 9] of 7530 ng·h/mL and an AUC(0-inf) [1, 9] of 7920 ng·h/mL. The AUC(0-inf) [1, 10] was 5520 ng·h/mL, the Cmax [1, 10] was 415 ± 72 ng/mL and the half-life ([1]; in vivo, 750 mg/kg, t1/2, male SD rat plasma, single oral 750 mg/kg (Group 3), individual rats 456, 457, 458) was 4.77 h. The Tmax [1, 9] was 8 h, the Tmax [1, 10] was 6.67 ± 1.15 h and the concentration at 24 h ([1]; in vivo, 1000 mg/kg) was 13400 ng/g. The AUC(0-t) ([1]; in vivo, 1000 mg/kg, single oral 1000 mg/kg (Group 4), all data included, mean) was 6760 ± 930 ng·h/mL, the AUC(0-t) ([1]; in vivo, 1000 mg/kg, single oral 1000 mg/kg (Group 4), one outlier excluded, individual rats 459, 460, 461) was 3980 ng·h/mL and the AUC(0-t) [1, 11] was 5710 ± 1730 ng·h/mL. The AUC(0-inf) [1, 11] was 6880 ng·h/mL, the half-life ([1]; in vivo, 1000 mg/kg, t1/2, male SD rat plasma, single oral 1000 mg/kg (Group 4), all data included, individual rats 459, 460, 461) was 4.3 h and the half-life ([1]; in vivo, 1000 mg/kg, t1/2, male SD rat plasma, single oral 1000 mg/kg (Group 4), all data included, mean) was 4.88 ± 0.5 h. It also gave a half-life ([1]; in vivo, 1000 mg/kg, t1/2, male SD rat plasma, single oral 1000 mg/kg (Group 4), one outlier excluded, individual rats 459, 460) of 4.3 h, a half-life ([1]; in vivo, 1000 mg/kg, t1/2, male SD rat plasma, single oral 1000 mg/kg (Group 4), one outlier excluded, mean) of 4.73 h and a half-life ([1]; in vivo, plasma t1/2, range, 250-1000 mg/kg single oral dose) of 4.71 to 6.06 h. For the same compound, the concentration at 2 h ([1]; plasma, 500 mg/kg, Plasma concentration, male SD rat, single oral 500 mg/kg (Group 2), 2 hr, individual rats 453, 454, 455) was 136 ng/mL, the concentration at 6 h ([1]; plasma, 500 mg/kg, Plasma concentration, male SD rat, single oral 500 mg/kg (Group 2), 6 hr, individual rats 453, 454, 455) was 428 ng/mL and the concentration at 8 h ([1]; plasma, 500 mg/kg, Plasma concentration, male SD rat, single oral 500 mg/kg (Group 2), individual rats 453, 454, 455) was 561 ng/mL. For the same compound, the concentration at 6 h ([1]; plasma, 750 mg/kg, Plasma concentration, male SD rat, single oral 750 mg/kg (Group 3), 6 hr, individual rats 456, 457, 458) was 381 ng/mL, the concentration at 8 h ([1]; plasma, 750 mg/kg, Plasma concentration, male SD rat, single oral 750 mg/kg (Group 3), individual rats 456, 457, 458) was 497 ng/mL and the AUC(0-t) [1, 12] was 7440 ng·h/mL. For the same compound, the AUC(0-inf) ([1]; plasma, 1000 mg/kg, single oral 1000 mg/kg (Group 4), one outlier excluded, individual rats 459, 460) was 5880 ng·h/mL, the Cmax [1, 12] was 365 ng/mL and the concentration at 6 h ([1]; plasma, 1000 mg/kg, Plasma concentration, male SD rat, single oral 1000 mg/kg (Group 4), all data included, 6 hr, individual rats 459, 460, 461) was 365 ng/mL. The concentration at 4 hr ([1]; plasma, 1000 mg/kg, Plasma concentration, male SD rat, single oral 1000 mg/kg (Group 4), one outlier excluded, 4 hr, mean) was 381 ng/mL, the concentration at 6 hr ([1]; plasma, 1000 mg/kg, Plasma concentration, male SD rat, single oral 1000 mg/kg (Group 4), one outlier excluded, 6 hr, individual rats 459, 460, 461) was 365 ng/mL and the C24h plasma concentration ([2]; 125 mg/kg) was 290 ng/mL. For the same compound, the C24h plasma concentration ([2]; 250 mg/kg) was 194 ng/mL, the Lung concentration ([2]; po, 250 mg/kg) was 784 ng/mL and the Plasma concentration ([2]; po, 250 mg/kg) was 194 ng/mL. The lung concentrations achieved [3] was “greater than 30 ug/g”, the Plasma concentration ([3]; 250 mg/kg, 24 h) was 34 ng/mL and the AUC(0-t) (in vivo [4]; 250 mg/kg) was 4120 ng·h/mL. For the same compound, the Cmax (in vivo [4]; 250 mg/kg) was 336 ng/mL, the Tmax (in vivo [4]; 250 mg/kg, tmax) was 6 h and the Cmax (in vivo [4]; 500 mg/kg) was 462 ng/mL. The Tmax (in vivo [4]; 500 mg/kg, tmax) was 6 h, the AUC(0-t) (in vivo [4]; 750 mg/kg) was 5260 ng·h/mL and the Tmax (in vivo [4]; 750 mg/kg, tmax) was 6 h. The AUC(0-t) (in vivo [4]; 1000 mg/kg) was 5700 ng·h/mL, the AUC(0-inf) (in vivo [4]; 1000 mg/kg, AUC∞) was 7730 ng·h/mL and the Cmax (in vivo [4]; 1000 mg/kg) was 452 ± 75 ng/mL. For the same compound, the concentration at 0.25 h (in vivo [4]; [13]) was 5.05 ng/mL, the concentration at 0.25 hr (in vivo [4]; [13]) was 5.05 ng/mL and the concentration at 2 h (in vivo [4]; [13]) was 226 ng/mL. For the same compound, the concentration at 2 hr (in vivo [4]; [13]) was 226 ng/mL, the concentration at 4 h (in vivo [4]; [13]) was 335 ng/mL and the concentration at 4 hr (in vivo [4]; [13]) was 335 ng/mL. It also gave a concentration at 6 h (in vivo [4]; [13]) of 489 ng/mL, a concentration at 8 h (in vivo [4]; [13]) of 295 ng/mL and a concentration at 8 hr (in vivo [4]; [13]) of 295 ng/mL. The Tmax (in vivo [4]; 1000 mg/kg, tmax) was 6 h, the Tmax (in vivo [4]; Mean Tmax (plasma), range) was 5.3 to 6 h and the Kp (in vivo [5]) was about 50. The Tmax (in vivo [5]; 250 mg/kg, Mean Tmax (plasma)) was 2 to 6 h, the Tmax (in vivo [5]; 250 mg/kg, Tmax (lung)) was 4 to 8 h and the Cmax at 5 day (in vivo [5]; po, 50 mg/kg) was 178 ± 8 ng/mL. For the same compound, the MRT last (in vivo [5]; po, 50 mg/kg) was 6.79 h, the MRT last at 5 day (in vivo [5]; po, 50 mg/kg) was 7.35 h and the Tmax at 5 day (in vivo [5]; po, 50 mg/kg) was 5 h. It also gave a Cmax at 5 day (in vivo [5]; po, 250 mg/kg) of 1050 ± 230 ng/mL, an MRT last (in vivo [5]; po, 250 mg/kg) of 8.27 h and a Tmax at 5 day (in vivo [5]; po, 250 mg/kg) of 6 h.
